Reference: patent US6174897A, “Bis-(quinolyl)-diamines” (Bayer Aktiengesellschaft, priority 1996, dated 2001)

Tests used:
[1] = target: apamin binding sites / apamin receptors (bovine cerebral membrane, calf hippocampus); assay: Binding of 125I-apamin to bovine cerebral membrane; conditions: 125I-apamin 30 pM, calf hippocampus membranes
Protocol: 1) Binding of ^125 1I-apamine to Bovine Cerebral Membrane
Calf brains were obtained from the local abattoir. The hippocampus was prepared on ice and a membrane suspension was made up by homogenization twice in buffer (100 mM Tris-HCl, KCl 5 mM, pH 7.4) and centrifugation at 43,000×g. In a total volume of 500 μl, the incubation mixture contained 200 μg of membrane protein, 30 pM ^125 I-apamin and test substances in the concentration range 1×10^-9 to 1×10^-4 M. The non-specific binding of ^125 I-apamine was determined in the presence of 1×10^-7 M unlabelled apamin.
After preincubation for 30 min at room temperature (test substances and membrane homogenate), the samples were placed on ice for 10 min before the radioligand was added. The main incubation time was 60 min on ice. When the reaction time had elapsed, an excess of ice-cooled incubation buffer was added to each sample and the mixture was filtered with suction through cellulose acetate/nitrate membrane filters. The amount of bound ^125 I-apamin was measured with a gamma counter.

[2] = tested on: apamin-sensitive potassium channels (PC12 cells); assay: Non-radioactive Rb+ efflux assay in PC12 cells; type: cell-based
Protocol: 2) Non-radioactive Rb^+ Efflux Assay for the Identification of Potassium Channel Modulators
The cellular potassium in PC12 cells is exchanged with rubidium, which is not present in the cells. This exchange is performed by incubating the cells over a period of 4 h in a physiological buffer containing 5.4 mM RbCl without KCl. This rubidium subsequently serves as a tracer for potassium. The cells laden with Rb^+ in this way are washed three times and then stimulated by depolarization with 50 mM KCl to open potassium channels (10 min), causing Rb^+ to flow out of the cells into the supernatant according to the concentration gradient.
The rubidium contents in the cell supernatant and in the residual cells after they have been lysed with 1% Triton X-100 are then determined by means of atomic absorption spectroscopy. The relative proportion of rubidium in the cell supernatent (=Rb^+ efflux) is used as a measure of the potassium channel activity.
The effect of substances on the channel activity is measured by co-incubating the test substance over the ten-minute stimulation period and determining its effect on the Rb^+ efflux in the manner described above.

Compound | Ki [1] [nM] | % inhibition of the Rb efflux ([2]; test concentration of 10 μM) [%] | % inhibition of the Rb efflux ([2]; at 1 μM) [%]
CCc1cc(NCCCCCNc2cc(CC)nc3ccccc23)c2ccccc2n1 [Example 1] | 17 | 77 | –
CCCc1cc(NCCCCCNc2cc(CCC)nc3ccccc23)c2ccccc2n1 [Example 2] | 13 | – | –
Cc1cccc2c(NCCCCCNc3cc(C(C)C)nc4c(C)cccc34)cc(C(C)C)nc12 [Example 4] | – | 75 | 68
